The values that follow come from patent publication US20260272865A1, “HYDROXYPHENYL PROPANOATE COMPOUNDS FOR TUMOUR IMMUNOTHERAPY, COMPOSITIONS AND USES THEREOF” (UTI LIMITED PARTNERSHIP, priority 2023, published 2026).

Series [1] can be described thus: Maximum tolerable dose and body weight of mice given metabolite intraperitoneally. Type of series: in vivo. To be noted: 83 mg/kg body weight, given every 48 hours, intraperitoneal.
Series [2] deals with IRF pathway. Type of series: cell-based, human.
Series [3] addresses T1, GSDMD (Homo sapiens, UniProt P57764).
T1 construct: host or cells: THP1-Dual cells (human monocytic reporter line)
T1 sequence (P57764 1-484): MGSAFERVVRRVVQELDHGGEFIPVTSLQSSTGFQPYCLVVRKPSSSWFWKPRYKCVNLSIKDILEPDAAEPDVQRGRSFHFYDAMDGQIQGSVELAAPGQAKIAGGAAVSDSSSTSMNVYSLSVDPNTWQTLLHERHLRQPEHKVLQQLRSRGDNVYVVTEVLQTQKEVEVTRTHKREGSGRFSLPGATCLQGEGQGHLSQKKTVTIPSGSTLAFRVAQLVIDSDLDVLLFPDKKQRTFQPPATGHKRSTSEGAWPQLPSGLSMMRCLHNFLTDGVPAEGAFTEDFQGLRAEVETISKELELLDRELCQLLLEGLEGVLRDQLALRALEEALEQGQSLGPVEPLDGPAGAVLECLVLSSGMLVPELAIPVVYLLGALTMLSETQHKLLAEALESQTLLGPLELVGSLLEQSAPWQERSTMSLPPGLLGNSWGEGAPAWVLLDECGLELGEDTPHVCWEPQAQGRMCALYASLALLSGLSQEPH
In words: Thermal proteomic profiling (TPP) in intact THP1-Dual cells. It is filed as binding. The method, then: 24 mL of THP1-Dual™ cells (at a density of 1.5×10^6 cells/mL) were treated with 2 mM metabolite or vehicle control for 16 hours. The cells were then centrifuged at 340×g for 5 minutes at 4° C., resuspended in 20 mL of ice-cold PBS, and centrifuged again. The cells were resuspended in 1200 μL of PBS, divided into 10 aliquots of 100 μL in 0.2 mL PCR tubes and centrifuged at 325×g for 2 minutes at 4° C. 80 μL of the PBS supernatant was removed using a pipette and the tubes were gently tapped to resuspend the cells. Each of the metabolite and vehicle-treated cell tubes were then heated in parallel in a PCR machine for 3 minutes at temperatures ranging from 37° C. to 67° C. […] The entire content was centrifuged at 100,000×g for 20 minutes at 4° C., the supernatant was removed into a fresh tube, and the protein concentration of the 37° C. sample was measured. […] The volume of lysate that gave 200 μg of protein at the 37° C. temperature point was determined and removed into a fresh tube for all other temperature points.
The proteins were cleaned up and the peptides digested following previously described methods (Science 346, (2014); Nat. Protoc. 10, 1567-1593 (2015)). […] The next day, the digested peptides were transferred to a fresh Eppendorf™ tube and the concentration of peptides measured in the 37° C. temperature point. […]

The subject of series [4] is GSDMD-mediated anti-tumour immunity. In words: Orthotopic M3-9-M^OVA RMS in WT vs GSDMD-KO mice. It is filed as in vivo, mouse. The text has this:
It was hypothesized that the HPP metabolite enhances cancer immunity by targeting a critical signalling protein involved in the NF-κB pathway. […] Through nonparametric analysis of the response curves (NPARC) (Mol. Cell. Proteomics 18, (2019)), 647 potential protein targets of 3,2-HPP metabolite were identified (FIG. 10b). To narrow down the investigation, GSDMD was focused on (FIG. 10c, d), which is a cell membrane pore-forming protein that plays a critical role in inflammasome pathway, IL-1β release and tumour immunity (Cell Rep. 34, (2021); Cell Res. 25, 1285-98 (2015); J. Immunother. Cancer 10, (2022); Cell Rep. 41, (2022); Int. Immunopharmacol. 74, (2019); J. Dig. Dis. 19, (2018); Int. J. Biol. Sci. 17, (2021); Nat. Commun. 13, 1-20 (2022); BMC Cancer 20, (2020); Oncogene 41, 5092-5106 (2022)). A correlation between the expression of inflammasome genes, GSDMD and NF-κB1 in tumour infiltrated immune cells was observed (FIG. 11). Whether 3,2-HPP targets GSDMD-mediated anti-tumour immunity was validated by orthotopically implanting M3-9-M^OVA RMS into the gastrocnemius muscle of male C57BL/6NJ (WT) and C57BL/6N-Gsdmdem4Fcw/J (KO) mice (FIG. 10e).

As for `O=C(O)CCc1ccccc1O` [Compound I-1, 3-(2-hydroxyphenyl)propanoic acid], in series [1], the “toxicity or weight loss” value was “without toxicity or weight loss”. In series [2], the “IRF pathway activation combined with PRR agonists” value is “potentiate”. In addition, the “GSDMD protein denaturation curve” value in series [3] (NPARC test) is reported as “impacted”. In addition, the “number of potential protein targets identified (NPARC)” value in series [3] (proteome-wide, 2 mM metabolite, 16 hours) came to 647. Further, in series [4] (male C57BL/6N-Gsdmdem4Fcw/J (KO) mice), the “effect on tumours implanted in GSDMD-KO mice” value was “had no effect”. Also, in series [4] (male C57BL/6NJ (WT) mice), the overall survival entry was “increased overall survival” and the tumour growth result is recorded as “decreased tumour growth”.
